# Test results: the supplement of paper PMC10307832
# Tests used:
# Experiment in all cases: relative viability (nuclei count vs DMSO), 5 days (fraction); higher = more cells survive
# [1] = compound: N#CC[C@H](C1CCCC1)n1cc(-c2ncnc3[nH]ccc23)cn1 [Ruxolitinib] + COc1cc2c(Oc3ccc(NC(=O)C4(C(=O)Nc5ccc(F)cc5)CC4)cc3F)ccnc2cc1OCCCN1CCOCC1 [Foretinib] (partner 0.25 µM)
# How it was run: (§1)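 Five library-drug doses in √10 steps were combined with a fixed anchor-drug dose, or a single drug was given alone, by pin tool to lung cancer cell lines in 1536-well plates the day after seeding. Nuclei were stained and counted after 5 days. Relative viability is the nuclei count in treated wells over that in vehicle wells, taken as the median of duplicate plates.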
# [2] = compound: N#CC[C@H](C1CCCC1)n1cc(-c2ncnc3[nH]ccc23)cn1 [Ruxolitinib] + CC(=O)c1c(C)c2cnc(Nc3ccc(N4CCNCC4)cn3)nc2n(C2CCCC2)c1=O [Palbociclib] (partner 0.5 µM)
# How it was run: as §1
# [3] = compound: CS(=O)(=O)c1ccc(C(=O)Nc2ccc(Cl)c(-c3ccccn3)c2)c(Cl)c1 [Vismodegib] + COc1cccc2cc(-c3nc([C@H]4CC[C@H](C(=O)O)CC4)n4ncnc(N)c34)[nH]c12 [OSI-027] (partner 0.5 µM)
# How it was run: as §1
# [4] = compound: N#CC[C@H](C1CCCC1)n1cc(-c2ncnc3[nH]ccc23)cn1 [Ruxolitinib] + CS(=O)(=O)N1CCN(Cc2cc3nc(-c4cccc5[nH]ncc45)nc(N4CCOCC4)c3s2)CC1 [Pictilisib] (partner 1 µM)
# How it was run: as §1
Cell Line,relative viability ([1]; first compound 0.08 µM),relative viability ([1]; first compound 0.253 µM),relative viability ([1]; first compound 0.8 µM),relative viability ([1]; first compound 2.53 µM),relative viability ([1]; first compound 8 µM),relative viability ([2]; first compound 0.08 µM),relative viability ([2]; first compound 0.253 µM),relative viability ([2]; first compound 0.8 µM),relative viability ([2]; first compound 2.53 µM),relative viability ([2]; first compound 8 µM),relative viability ([3]; first compound 0.08 µM),relative viability ([3]; first compound 0.253 µM),relative viability ([3]; first compound 0.8 µM),relative viability ([3]; first compound 2.53 µM),relative viability ([3]; first compound 8 µM),relative viability ([4]; first compound 0.08 µM),relative viability ([4]; first compound 0.253 µM),relative viability ([4]; first compound 0.8 µM),relative viability ([4]; first compound 2.53 µM),relative viability ([4]; first compound 8 µM)
LCLC-97TM1,0.848,0.753,0.826,0.834,0.889,0.235,0.185,0.213,0.192,0.213,0.673,0.522,0.525,0.507,0.523,0.182,0.153,0.214,0.158,0.198
LCLC-103H,0.808,0.672,0.881,0.71,0.661,0.495,0.467,0.468,0.426,0.394,0.462,0.461,0.364,0.476,0.476,0.58,0.597,0.592,0.524,0.597
LK-2,1.15,1.45,1.46,1.29,1.34,0.863,0.696,0.787,0.701,0.686,0.264,0.187,0.181,0.182,0.226,–,0.595,0.61,0.741,0.673
LOU-NH91,–,0.968,1.02,0.877,0.876,0.61,0.526,0.52,0.532,0.53,0.777,0.689,0.673,0.693,0.709,0.477,0.493,0.524,0.514,0.56
LU99A,0.882,0.858,0.787,0.69,0.641,0.443,0.387,0.411,0.369,0.332,0.35,0.271,0.24,0.278,0.287,0.321,0.315,0.401,0.339,0.316
LXF-289,0.902,0.957,0.97,0.91,0.871,0.539,0.598,0.626,0.599,0.565,0.764,0.764,0.795,0.823,0.59,0.785,0.797,0.804,0.739,0.498
NCI-H23,1.07,0.969,1,0.813,0.709,0.538,0.485,0.604,0.426,0.34,0.745,0.742,0.599,0.464,0.438,0.519,0.474,0.603,0.439,0.415
NCI-H322M,0.964,0.99,1.18,1.22,1.43,0.503,0.488,0.536,0.645,0.563,0.677,0.522,0.486,0.525,0.537,0.4,0.604,0.491,0.611,0.665
NCI-H358,0.531,0.692,0.638,0.619,0.558,0.167,0.125,0.16,0.14,0.127,0.775,0.711,0.8,0.807,0.853,0.413,0.343,0.342,0.268,0.265
NCI-H441,1.07,0.915,0.997,0.787,0.855,0.218,0.206,0.302,0.241,0.309,0.932,0.693,0.638,0.518,0.601,0.44,0.497,0.533,0.445,0.39
NCI-H460,1.02,0.999,1.1,0.917,0.843,0.173,0.159,0.165,0.0961,0.155,0.644,0.603,0.684,0.622,0.559,0.179,0.309,0.307,0.386,0.114
NCI-H520,0.703,–,0.853,0.753,0.885,0.243,0.218,0.251,0.204,0.258,0.284,0.227,0.298,0.314,0.309,–,0.258,0.236,0.251,0.34
NCI-H647,1.08,1.27,1.31,1.19,1.08,0.523,0.443,0.44,0.344,0.346,0.665,0.605,0.671,0.486,0.579,–,0.358,0.449,0.362,0.514
NCI-H650,–,1,1.14,0.917,0.678,0.325,0.339,0.347,0.317,0.321,0.604,0.513,0.454,0.511,0.491,–,0.881,1.21,0.699,0.649
